{"source": "patent US9637483B2", "about": "“Heterocyclic compound” (TAKEDA PHARMACEUTICAL COMPANY LIMITED, priority 2013, dated 2017)", "type_in_all_cases": "biochemical", "key": {"[1]": {"biological_target": "T1, JAK1 (Homo sapiens, UniProt P23458)", "T1 construct": "purchased Invitrogen", "T1 sequence (P23458 whole entry)": "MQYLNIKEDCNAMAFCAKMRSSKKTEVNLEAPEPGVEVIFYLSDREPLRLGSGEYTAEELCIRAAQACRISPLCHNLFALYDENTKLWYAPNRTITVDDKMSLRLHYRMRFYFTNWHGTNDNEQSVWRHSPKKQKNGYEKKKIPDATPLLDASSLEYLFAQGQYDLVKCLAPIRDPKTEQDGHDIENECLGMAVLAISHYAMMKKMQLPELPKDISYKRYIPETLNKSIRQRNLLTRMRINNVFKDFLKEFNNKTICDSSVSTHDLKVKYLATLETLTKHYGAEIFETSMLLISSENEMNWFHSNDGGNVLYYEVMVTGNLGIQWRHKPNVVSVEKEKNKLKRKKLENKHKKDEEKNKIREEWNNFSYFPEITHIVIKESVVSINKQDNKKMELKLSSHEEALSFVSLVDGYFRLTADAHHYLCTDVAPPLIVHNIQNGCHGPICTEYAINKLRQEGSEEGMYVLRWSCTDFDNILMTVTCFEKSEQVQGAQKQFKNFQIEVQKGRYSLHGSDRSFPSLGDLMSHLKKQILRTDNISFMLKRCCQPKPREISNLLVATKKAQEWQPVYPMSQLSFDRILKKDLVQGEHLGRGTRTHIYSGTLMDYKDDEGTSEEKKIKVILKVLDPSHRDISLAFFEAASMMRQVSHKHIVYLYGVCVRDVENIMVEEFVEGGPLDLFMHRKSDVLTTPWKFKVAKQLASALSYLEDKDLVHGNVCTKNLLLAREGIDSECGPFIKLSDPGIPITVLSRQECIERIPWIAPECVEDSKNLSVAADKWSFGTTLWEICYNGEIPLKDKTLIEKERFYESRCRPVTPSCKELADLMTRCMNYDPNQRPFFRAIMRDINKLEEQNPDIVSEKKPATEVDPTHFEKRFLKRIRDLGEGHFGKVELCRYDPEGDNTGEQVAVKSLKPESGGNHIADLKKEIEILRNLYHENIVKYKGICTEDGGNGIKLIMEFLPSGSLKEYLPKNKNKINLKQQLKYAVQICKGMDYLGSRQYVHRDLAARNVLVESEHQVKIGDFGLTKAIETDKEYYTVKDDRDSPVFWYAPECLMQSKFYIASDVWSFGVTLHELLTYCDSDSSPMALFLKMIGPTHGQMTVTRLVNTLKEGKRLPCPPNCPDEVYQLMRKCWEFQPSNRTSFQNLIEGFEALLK", "test": "JAK1 enzyme inhibition test (LANCE method)", "details": "1 μM test compound; read-out: JAK1 enzyme inhibitory activity (%, 1 μM)", "description": "(§1) JAK1 enzyme inhibitory activity of test compounds was measured by the LANCE method (PerkinElmer). First, a test compound diluted with assay buffer (50 mM HEPES (pH 7.5), 10 mM MgCl2, 1 mM EGTA, 2 mM DTT, 0.01% Tween20, 0.01% BSA) was added to a 384-well plate by 2 μL each. Then, a JAK1 (Invitrogen) solution and a fluorescence-labeled peptide substrate (ULight-JAK1, PerkinElmer) solution diluted with assay buffer to 187.5 ng/mL and 300 nM, respectively, were added by 2 μL each. Then, an enzyme reaction was started by adding 2 μL each of ATP solution prepared with assay buffer to 150 μM. After the reaction at room temperature for 1 hr, Detection Buffer (PerkinElmer) prepared to contain 20 mM EDTA, 4 nM europium-labeled anti-phosphotyrosine antibody (PerkinElmer) was added by 6 μL each. After standing at room temperature for 1 hr, fluorescence intensity (excitation wavelength 340 nm, fluorescence wavelength 665 nm, delay time 100 microseconds) was measured by a plate reader, Envision (PerkinElmer). The inhibitory activity of each compound was calculated as a relative activity value to the fluorescence intensity of a well free of enzyme as 100% inhibition."}, "[2]": {"biological_target": "T2, TYK2 (Homo sapiens, UniProt P29597)", "T2 construct": "purchased Invitrogen", "T2 sequence (P29597 whole entry)": "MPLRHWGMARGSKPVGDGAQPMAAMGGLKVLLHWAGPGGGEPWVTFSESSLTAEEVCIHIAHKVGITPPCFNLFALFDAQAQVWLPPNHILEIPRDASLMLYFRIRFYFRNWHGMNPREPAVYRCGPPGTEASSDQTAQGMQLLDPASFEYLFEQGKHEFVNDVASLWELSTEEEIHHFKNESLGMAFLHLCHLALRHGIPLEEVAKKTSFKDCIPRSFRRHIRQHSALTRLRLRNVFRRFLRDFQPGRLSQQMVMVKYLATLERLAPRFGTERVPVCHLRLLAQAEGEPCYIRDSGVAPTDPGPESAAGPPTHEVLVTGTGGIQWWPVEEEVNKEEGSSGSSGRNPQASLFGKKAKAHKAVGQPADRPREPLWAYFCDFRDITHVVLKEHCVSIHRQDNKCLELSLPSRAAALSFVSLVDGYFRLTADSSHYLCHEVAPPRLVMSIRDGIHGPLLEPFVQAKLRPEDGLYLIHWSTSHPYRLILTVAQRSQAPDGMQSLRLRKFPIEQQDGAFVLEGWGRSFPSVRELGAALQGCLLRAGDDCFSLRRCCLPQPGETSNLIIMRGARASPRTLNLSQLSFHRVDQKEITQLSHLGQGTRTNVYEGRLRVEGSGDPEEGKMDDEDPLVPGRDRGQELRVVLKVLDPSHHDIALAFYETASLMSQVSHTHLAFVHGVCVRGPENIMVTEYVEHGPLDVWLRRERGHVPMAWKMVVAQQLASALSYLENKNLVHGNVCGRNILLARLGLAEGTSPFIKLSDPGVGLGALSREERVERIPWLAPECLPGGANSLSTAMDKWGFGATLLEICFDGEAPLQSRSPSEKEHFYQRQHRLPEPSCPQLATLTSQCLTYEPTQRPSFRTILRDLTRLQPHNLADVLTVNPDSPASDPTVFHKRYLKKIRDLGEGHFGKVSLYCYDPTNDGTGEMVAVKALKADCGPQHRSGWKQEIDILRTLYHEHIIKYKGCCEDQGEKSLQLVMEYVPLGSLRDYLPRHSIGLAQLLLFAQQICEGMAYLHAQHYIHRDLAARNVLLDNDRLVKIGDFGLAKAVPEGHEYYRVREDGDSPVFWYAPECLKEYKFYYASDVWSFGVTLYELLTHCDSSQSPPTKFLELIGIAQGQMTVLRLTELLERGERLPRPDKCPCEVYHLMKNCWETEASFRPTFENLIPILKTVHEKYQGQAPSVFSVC", "test": "TYK2 enzyme inhibition test (LANCE method)", "details": "1 μM test compound; read-out: TYK2 enzyme inhibitory activity (%, 1 μM)", "description": "as §1, with “TYK2 enzyme” for “JAK1 enzyme”, “a TYK2” for “a JAK1”, “to 375” for “to 187.5”, “to 30” for “to 150”"}, "[3]": {"biological_target": "T3, JAK2 (Homo sapiens, UniProt O60674)", "T3 construct": "purchased Invitrogen", "T3 sequence (O60674 whole entry)": "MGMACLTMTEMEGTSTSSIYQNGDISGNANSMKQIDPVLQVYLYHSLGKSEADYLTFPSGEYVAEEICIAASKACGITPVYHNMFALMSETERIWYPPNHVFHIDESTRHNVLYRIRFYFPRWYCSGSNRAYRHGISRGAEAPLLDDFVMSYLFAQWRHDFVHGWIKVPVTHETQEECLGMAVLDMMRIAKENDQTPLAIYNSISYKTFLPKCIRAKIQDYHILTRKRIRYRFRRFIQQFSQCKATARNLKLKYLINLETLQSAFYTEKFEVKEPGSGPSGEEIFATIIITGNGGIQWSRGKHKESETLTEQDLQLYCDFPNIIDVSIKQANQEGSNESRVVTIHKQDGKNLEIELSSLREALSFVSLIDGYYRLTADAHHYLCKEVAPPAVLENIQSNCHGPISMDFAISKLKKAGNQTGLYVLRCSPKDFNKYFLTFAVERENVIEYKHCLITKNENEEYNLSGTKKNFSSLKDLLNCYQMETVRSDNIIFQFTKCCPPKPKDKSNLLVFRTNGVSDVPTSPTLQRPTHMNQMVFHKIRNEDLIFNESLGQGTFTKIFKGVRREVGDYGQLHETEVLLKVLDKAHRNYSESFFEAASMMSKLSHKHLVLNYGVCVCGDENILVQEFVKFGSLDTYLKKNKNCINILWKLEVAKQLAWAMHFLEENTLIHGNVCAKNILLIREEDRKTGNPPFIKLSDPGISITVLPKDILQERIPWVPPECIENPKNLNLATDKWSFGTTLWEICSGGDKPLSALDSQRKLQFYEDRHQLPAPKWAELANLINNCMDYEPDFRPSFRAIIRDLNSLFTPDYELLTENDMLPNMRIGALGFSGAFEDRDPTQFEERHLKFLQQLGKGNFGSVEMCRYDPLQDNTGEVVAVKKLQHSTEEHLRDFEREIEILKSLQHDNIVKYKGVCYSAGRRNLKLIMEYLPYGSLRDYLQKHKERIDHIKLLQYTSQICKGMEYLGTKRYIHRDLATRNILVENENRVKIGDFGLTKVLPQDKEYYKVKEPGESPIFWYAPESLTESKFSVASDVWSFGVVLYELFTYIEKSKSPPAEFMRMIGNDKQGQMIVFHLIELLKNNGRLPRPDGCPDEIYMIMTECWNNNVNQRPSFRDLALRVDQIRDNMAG", "test": "JAK2 enzyme inhibition test (LANCE method)", "details": "1 μM test compound; read-out: JAK2 enzyme inhibitory activity (%, 1 μM)", "description": "as §1, with “JAK2 enzyme” for “JAK1 enzyme”, “a JAK2” for “a JAK1”, “to 6” for “to 187.5”, “to 45” for “to 150”"}, "[4]": {"biological_target": "T4, JAK3 (Homo sapiens, UniProt P52333)", "T4 construct": "purchased Invitrogen", "T4 sequence (P52333 1-1124)": "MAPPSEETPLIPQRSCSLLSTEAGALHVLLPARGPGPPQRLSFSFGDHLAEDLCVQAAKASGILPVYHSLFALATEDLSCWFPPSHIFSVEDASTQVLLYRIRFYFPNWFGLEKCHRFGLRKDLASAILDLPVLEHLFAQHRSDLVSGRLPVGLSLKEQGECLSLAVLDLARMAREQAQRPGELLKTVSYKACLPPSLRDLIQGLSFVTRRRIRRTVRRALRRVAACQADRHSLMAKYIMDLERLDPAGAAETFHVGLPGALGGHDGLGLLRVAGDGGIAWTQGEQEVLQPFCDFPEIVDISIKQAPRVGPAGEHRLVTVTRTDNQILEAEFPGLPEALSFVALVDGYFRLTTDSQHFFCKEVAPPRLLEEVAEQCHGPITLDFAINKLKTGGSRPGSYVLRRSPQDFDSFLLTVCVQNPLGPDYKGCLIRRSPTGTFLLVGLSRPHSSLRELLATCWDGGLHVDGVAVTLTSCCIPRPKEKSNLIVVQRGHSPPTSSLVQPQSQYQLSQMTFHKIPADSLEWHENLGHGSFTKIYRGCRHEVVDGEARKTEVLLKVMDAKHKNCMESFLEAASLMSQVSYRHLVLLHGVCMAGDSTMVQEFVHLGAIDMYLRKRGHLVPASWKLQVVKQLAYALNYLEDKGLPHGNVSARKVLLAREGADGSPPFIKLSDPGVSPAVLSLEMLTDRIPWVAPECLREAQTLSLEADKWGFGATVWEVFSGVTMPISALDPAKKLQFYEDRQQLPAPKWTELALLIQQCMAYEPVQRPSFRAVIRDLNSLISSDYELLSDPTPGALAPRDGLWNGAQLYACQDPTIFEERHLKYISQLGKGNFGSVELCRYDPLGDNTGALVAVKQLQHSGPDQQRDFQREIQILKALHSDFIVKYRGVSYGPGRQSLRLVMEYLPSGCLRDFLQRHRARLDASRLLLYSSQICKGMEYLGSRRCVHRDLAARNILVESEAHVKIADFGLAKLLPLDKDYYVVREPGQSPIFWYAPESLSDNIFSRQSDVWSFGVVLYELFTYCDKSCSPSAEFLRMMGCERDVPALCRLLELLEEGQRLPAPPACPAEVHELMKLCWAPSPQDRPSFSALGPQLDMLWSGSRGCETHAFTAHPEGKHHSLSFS", "test": "JAK3 enzyme inhibition test (LANCE method)", "details": "1 μM test compound; read-out: JAK3 enzyme inhibitory activity (%, 1 μM)", "description": "as §1, with “JAK3 enzyme” for “JAK1 enzyme”, “a JAK3” for “a JAK1”, “to 12” for “to 187.5”, “to 15” for “to 150”"}}, "data": [{"compound": "C[C@@H](C1CC1)n1cc(-c2cc(C(C)(C)O)n(C)n2)c2[nH]nc(N)c2c1=O", "note": "[Example 7, 3-amino-5-((1S)-1-cyclopropylethyl)-7-(5-(2-hydroxypropan-2-yl)-1-methyl-1H-pyrazol-3-yl)-1,5-dihydro-4H-pyrazolo[4,3-c]pyridin-4-one]", "values": [{"measurement": "inhibition at 1 µM", "setting": "[1]", "value": 100, "unit": "%"}, {"measurement": "inhibition at 1 µM", "setting": "[2]", "value": 99, "unit": "%"}, {"measurement": "inhibition at 1 µM", "setting": "[3]", "value": 100, "unit": "%"}, {"measurement": "inhibition at 1 µM", "setting": "[4]", "value": 100, "unit": "%"}]}, {"compound": "C[C@@H](C1CC1)n1cc(-c2cc(N3CCC(C)(O)CC3)n(C)n2)c2[nH]nc(N)c2c1=O", "note": "[Example 8, 3-amino-5-((1S)-1-cyclopropylethyl)-7-(5-(4-hydroxy-4-methylpiperidin-1-yl)-1-methyl-1H-pyrazol-3-yl)-1,5-dihydro-4H-pyrazolo[4,3-c]pyridin-4-one]", "values": [{"measurement": "inhibition at 1 µM", "setting": "[1]", "value": 99, "unit": "%"}, {"measurement": "inhibition at 1 µM", "setting": "[2]", "value": 99, "unit": "%"}, {"measurement": "inhibition at 1 µM", "setting": "[3]", "value": 99, "unit": "%"}, {"measurement": "inhibition at 1 µM", "setting": "[4]", "value": 100, "unit": "%"}]}, {"compound": "CC(C1CC1)n1cc(-c2cc(CN3CCS(=O)(=O)CC3)n(C)n2)c2[nH]nc(N)c2c1=O", "note": "(stereo not shown) [Example 9, 3-amino-5-(1-cyclopropylethyl)-7-(5-((1,1-dioxidothiomorpholin-4-yl)methyl)-1-methyl-1H-pyrazol-3-yl)-1,5-dihydro-4H-pyrazolo[4,3-c]pyridin-4-one]", "values": [{"measurement": "inhibition at 1 µM", "setting": "[1]", "value": 98, "unit": "%"}, {"measurement": "inhibition at 1 µM", "setting": "[2]", "value": 99, "unit": "%"}, {"measurement": "inhibition at 1 µM", "setting": "[3]", "value": 99, "unit": "%"}, {"measurement": "inhibition at 1 µM", "setting": "[4]", "value": 100, "unit": "%"}]}, {"compound": "CC(C)[C@H](C)n1cc(-c2cc(N3CCN(C)CC3)n(C)n2)c2[nH]nc(N)c2c1=O", "note": "[Example 10, 3-amino-5-((2S)-3-methylbutan-2-yl)-7-(1-methyl-5-(4-methylpiperazin-1-yl)-1H-pyrazol-3-yl)-1,5-dihydro-4H-pyrazolo[4,3-c]pyridin-4-one]", "values": [{"measurement": "inhibition at 1 µM", "setting": "[1]", "value": 96, "unit": "%"}, {"measurement": "inhibition at 1 µM", "setting": "[2]", "value": 99, "unit": "%"}, {"measurement": "inhibition at 1 µM", "setting": "[3]", "value": 98, "unit": "%"}, {"measurement": "inhibition at 1 µM", "setting": "[4]", "value": 99, "unit": "%"}]}, {"compound": "CC(=O)N1CCN(c2cc(-c3cn([C@@H](C)C(C)C)c(=O)c4c(N)n[nH]c34)nn2C)CC1", "note": "[Example 11, 7-(5-(4-acetylpiperazin-1-yl)-1-methyl-1H-pyrazol-3-yl)-3-amino-5-((2S)-3-methylbutan-2-yl)-1,5-dihydro-4H-pyrazolo[4,3-c]pyridin-4-one]", "values": [{"measurement": "inhibition at 1 µM", "setting": "[1]", "value": 98, "unit": "%"}, {"measurement": "inhibition at 1 µM", "setting": "[2]", "value": 100, "unit": "%"}, {"measurement": "inhibition at 1 µM", "setting": "[3]", "value": 99, "unit": "%"}, {"measurement": "inhibition at 1 µM", "setting": "[4]", "value": 99, "unit": "%"}]}, {"compound": "CC(C)[C@H](C)n1cc(-c2cc(N3CCS(=O)(=O)CC3)n(C)n2)c2[nH]nc(N)c2c1=O", "note": "[Example 12, 3-amino-7-(5-(1,1-dioxidothiomorpholin-4-yl)-1-methyl-1H-pyrazol-3-yl)-5-((2S)-3-methylbutan-2-yl)-1,5-dihydro-4H-pyrazolo[4,3-c]pyridin-4-one]", "values": [{"measurement": "inhibition at 1 µM", "setting": "[1]", "value": 93, "unit": "%"}, {"measurement": "inhibition at 1 µM", "setting": "[2]", "value": 100, "unit": "%"}, {"measurement": "inhibition at 1 µM", "setting": "[3]", "value": 99, "unit": "%"}, {"measurement": "inhibition at 1 µM", "setting": "[4]", "value": 99, "unit": "%"}]}, {"compound": "CC(C)[C@H](C)n1cc(-c2cc(N3CCCOCC3)n(C)n2)c2[nH]nc(N)c2c1=O", "note": "[Example 13, 3-amino-5-((2S)-3-methylbutan-2-yl)-7-(1-methyl-5-(1,4-oxazepan-4-yl)-1H-pyrazol-3-yl)-1,5-dihydro-4H-pyrazolo[4,3-c]pyridin-4-one]", "values": [{"measurement": "inhibition at 1 µM", "setting": "[1]", "value": 97, "unit": "%"}, {"measurement": "inhibition at 1 µM", "setting": "[2]", "value": 100, "unit": "%"}, {"measurement": "inhibition at 1 µM", "setting": "[3]", "value": 99, "unit": "%"}, {"measurement": "inhibition at 1 µM", "setting": "[4]", "value": 99, "unit": "%"}]}, {"compound": "COC1CCN(c2cc(-c3cn([C@@H](C)C(C)C)c(=O)c4c(N)n[nH]c34)nn2C)CC1", "note": "[Example 14, 3-amino-7-(5-(4-methoxypiperidin-1-yl)-1-methyl-1H-pyrazol-3-yl)-5-((2S)-3-methylbutan-2-yl)-1,5-dihydro-4H-pyrazolo[4,3-c]pyridin-4-one]", "values": [{"measurement": "inhibition at 1 µM", "setting": "[1]", "value": 97, "unit": "%"}, {"measurement": "inhibition at 1 µM", "setting": "[2]", "value": 99, "unit": "%"}, {"measurement": "inhibition at 1 µM", "setting": "[3]", "value": 99, "unit": "%"}, {"measurement": "inhibition at 1 µM", "setting": "[4]", "value": 99, "unit": "%"}]}, {"compound": "CC(C)[C@H](C)n1cc(-c2cc(N3CCC(C(C)(C)O)CC3)n(C)n2)c2[nH]nc(N)c2c1=O", "note": "[Example 15, 3-amino-7-(5-(4-(2-hydroxypropan-2-yl)piperidin-1-yl)-1-methyl-1H-pyrazol-3-yl)-5-((2S)-3-methylbutan-2-yl)-1,5-dihydro-4H-pyrazolo[4,3-c]pyridin-4-one]", "values": [{"measurement": "inhibition at 1 µM", "setting": "[1]", "value": 97, "unit": "%"}, {"measurement": "inhibition at 1 µM", "setting": "[2]", "value": 100, "unit": "%"}, {"measurement": "inhibition at 1 µM", "setting": "[3]", "value": 99, "unit": "%"}, {"measurement": "inhibition at 1 µM", "setting": "[4]", "value": 100, "unit": "%"}]}, {"compound": "CC(C)[C@H](C)n1cc(-c2cc(N3CCC(F)(F)CC3)n(C)n2)c2[nH]nc(N)c2c1=O", "note": "[Example 16, 3-amino-7-(5-(4,4-difluoropiperidin-1-yl)-1-methyl-1H-pyrazol-3-yl)-5-((2S)-3-methylbutan-2-yl)-1,5-dihydro-4H-pyrazolo[4,3-c]pyridin-4-one]", "values": [{"measurement": "inhibition at 1 µM", "setting": "[1]", "value": 97, "unit": "%"}, {"measurement": "inhibition at 1 µM", "setting": "[2]", "value": 100, "unit": "%"}, {"measurement": "inhibition at 1 µM", "setting": "[3]", "value": 99, "unit": "%"}, {"measurement": "inhibition at 1 µM", "setting": "[4]", "value": 100, "unit": "%"}]}]}
